Laboratory results: patent US8440710B2, “HSL inhibitors useful in the treatment of diabetes” (Hoffmann-La Roche Inc., priority 2009, dated 2013)
pIC50: −log10 of the molar value.

Biological target: T1, human HSL (Homo sapiens, UniProt Q05469)
T1 construct: generate a full length human HSL ORF with a 3′-His6 tag; made in house; host or cells: High 5 insect cells (baculovirus, pFast-BAC)
T1 sequence (Q05469 1-1076): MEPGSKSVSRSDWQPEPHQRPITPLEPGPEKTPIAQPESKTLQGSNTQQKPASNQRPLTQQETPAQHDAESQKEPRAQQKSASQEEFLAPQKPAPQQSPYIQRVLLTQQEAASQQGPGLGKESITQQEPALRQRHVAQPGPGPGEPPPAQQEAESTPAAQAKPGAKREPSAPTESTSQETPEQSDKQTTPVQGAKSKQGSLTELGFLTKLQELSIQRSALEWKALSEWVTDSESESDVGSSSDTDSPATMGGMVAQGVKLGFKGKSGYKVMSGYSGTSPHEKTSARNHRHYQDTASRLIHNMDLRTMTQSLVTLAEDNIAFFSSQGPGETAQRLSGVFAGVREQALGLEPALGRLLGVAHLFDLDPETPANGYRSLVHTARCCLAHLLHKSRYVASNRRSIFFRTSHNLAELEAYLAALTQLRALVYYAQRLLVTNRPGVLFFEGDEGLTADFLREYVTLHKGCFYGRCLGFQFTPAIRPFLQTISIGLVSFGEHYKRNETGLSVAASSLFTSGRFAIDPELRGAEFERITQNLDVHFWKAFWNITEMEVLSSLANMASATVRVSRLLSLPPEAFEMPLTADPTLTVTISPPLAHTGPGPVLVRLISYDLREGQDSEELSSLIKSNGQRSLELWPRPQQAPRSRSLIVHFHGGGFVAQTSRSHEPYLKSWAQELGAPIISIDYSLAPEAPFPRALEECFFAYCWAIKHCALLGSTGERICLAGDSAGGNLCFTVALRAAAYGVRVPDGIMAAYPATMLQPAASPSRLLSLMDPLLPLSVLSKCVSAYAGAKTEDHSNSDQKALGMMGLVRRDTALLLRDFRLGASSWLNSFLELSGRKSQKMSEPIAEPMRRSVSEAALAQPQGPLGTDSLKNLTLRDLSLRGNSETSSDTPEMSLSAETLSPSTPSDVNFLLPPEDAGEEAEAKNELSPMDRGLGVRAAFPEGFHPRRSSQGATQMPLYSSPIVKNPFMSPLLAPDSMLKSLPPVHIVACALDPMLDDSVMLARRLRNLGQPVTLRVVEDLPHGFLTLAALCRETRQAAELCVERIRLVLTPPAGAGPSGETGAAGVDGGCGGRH
Test: Human Hormone-Sensitive Lipase (HSL) enzyme inhibition assay (colorimetric, DMPT substrate)
Assay type: biochemical
Details: human full length HSL-His6, 2,3-dimercapto-1-propanol tributyrate substrate, 37° C. 20 minutes, absorbance at 405 nm; read-out: HSL hum IC50
Method in brief: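 Full-length human HSL with C-terminal His6, expressed in baculovirus-infected High 5 cells and Ni-NTA purified, was added (15 ug/ml stock) to 1.5 mM DMPT in 100 mM MOPS pH 7.2, 0.2 mg/ml fatty acid-free BSA containing compound. After 20 min at 37 °C, DTNB with SDS/Triton X-100 was added; A405 read after 15 min at RT.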

| Compound | pIC50 |
| --- | --- |
| O=C1N(c2ccc(OC(F)(F)F)cc2)CC[C@]12CC[C@](O)(Cc1ccccc1)CC2 [Example 63, (5α,8β)-8-Benzyl-8-hydroxy-2-(4-trifluoromethoxy-phenyl)-2-aza-spiro[4.5]decan-1-one] | 6.22 |
| C=CCC[C@]1(O)CC[C@@]2(CCN(c3ccc(OC(F)(F)F)cc3)C2=O)CC1 [Example 65, (5α,8β)-8-But-3-enyl-8-hydroxy-2-(4-trifluoromethoxy-phenyl)-2-aza-spiro[4.5]decan-1-one] | 6.36 |
| CCCC[C@]1(O)CC[C@@]2(CCN(c3ccc(OC(F)(F)F)cc3)C2=O)CC1 [Example 67, (5α,8β)-8-Butyl-8-hydroxy-2-(4-trifluoromethoxy-phenyl)-2-aza-spiro[4.5]decan-1-one] | 4.95 |
| CC(C)[C@]1(O)CC[C@@]2(CCN(c3ccc(OC(F)(F)F)cc3)C2=O)CC1 [Example 69, (5α,8β)-8-Hydroxy-8-isopropyl-2-(4-trifluoromethoxy-phenyl)-2-aza-spiro[4.5]decan-1-one] | 6.25 |
| COCC#C[C@]1(O)CC[C@@]2(CCN(c3ccc(OC(F)(F)F)cc3)C2=O)CC1 [Example 72, (5α,8β)-8-Hydroxy-8-(3-methoxy-prop-1-ynyl)-2-(4-trifluoromethoxy-phenyl)-2-aza-spiro[4.5]decan-1-one] | 6.15 |
| C[C@]1(O)CC[C@]2(CCN(c3ccc(C4CC4)cc3)C2=O)CC1 [Example 73, (5α,8α)-2-(4-Cyclopropyl-phenyl)-8-hydroxy-8-methyl-2-aza-spiro[4.5]decan-1-one] | 6.82 |
| C[C@]1(O)CC[C@@]2(CCN(c3ccc(C4CC4)cc3)C2=O)CC1 [Example 74, (5α,8β)-2-(4-Cyclopropyl-phenyl)-8-hydroxy-8-methyl-2-aza-spiro[4.5]decan-1-one] | 6.10 |
| CCC[C@]1(O)CC[C@@]2(CCN(c3ccc(C4CC4)cc3)C2=O)CC1 [Example 76, (5α,8β)-2-(4-Cyclopropyl-phenyl)-8-hydroxy-8-propyl-2-aza-spiro[4.5]decan-1-one] | 6.72 |
| C[C@]1(O)CC[C@@]2(CCN(c3ccc(CC(F)(F)F)cc3)C2=O)CC1 [Example 78, (5α,8β)-8-Hydroxy-8-methyl-2-[4-(2,2,2-trifluoro-ethyl)-phenyl]-2-aza-spiro[4.5]decan-1-one] | 6.05 |
| CC[C@]1(O)CC[C@@]2(CCN(c3ccc(CC(F)(F)F)cc3)C2=O)CC1 [Example 80, (5α,8β)-8-Ethyl-8-hydroxy-2-[4-(2,2,2-trifluoro-ethyl)-phenyl]-2-aza-spiro[4.5]decan-1-one] | 6.04 |
| CCC[C@]1(O)CC[C@@]2(CCN(c3ccc(CC(F)(F)F)cc3)C2=O)CC1 [Example 82, (5α,8β)-8-Hydroxy-8-propyl-2-[4-(2,2,2-trifluoro-ethyl)-phenyl]-2-aza-spiro[4.5]decan-1-one] | 6.34 |
| CCCc1ccc(N2CC[C@]3(CC[C@](O)(CC)CC3)C2=O)cc1 [Example 84, (5α,8β)-8-Ethyl-8-hydroxy-2-(4-propyl-phenyl)-2-aza-spiro[4.5]decan-1-one] | 5.37 |
| O=C1N(c2ccc(OCC(F)(F)F)cc2)CC[C@]12CC[C@@H](O)CC2 [Example 85, (5α,8β)-8-Hydroxy-2-[4-(2,2,2-trifluoro-ethoxy)-phenyl]-2-aza-spiro[4.5]decan-1-one] | 5.64 |
| C[C@]1(O)CC[C@]2(CCN(c3ccc(OCC(F)(F)F)cc3)C2=O)CC1 [Example 86, (5α,8α)-8-Hydroxy-8-methyl-2-[4-(2,2,2-trifluoro-ethoxy)-phenyl]-2-aza-spiro[4.5]decan-1-one] | 6.89 |
| C[C@]1(O)CC[C@@]2(CCN(c3ccc(OCC(F)(F)F)cc3)C2=O)CC1 [Example 87, (5α,8β)-8-Hydroxy-8-methyl-2-[4-(2,2,2-trifluoro-ethoxy)-phenyl]-2-aza-spiro[4.5]decan-1-one] | 5.42 |
| CC[C@]1(O)CC[C@@]2(CCN(c3ccc(OCC(F)(F)F)cc3)C2=O)CC1 [Example 89, (5α,8β)-8-Ethyl-8-hydroxy-2-[4-(2,2,2-trifluoro-ethoxy)-phenyl]-2-aza-spiro[4.5]decan-1-one] | 5.50 |
| COCCC[C@]1(O)CC[C@@]2(CCN(c3ccc(OC(F)(F)F)cc3)C2=O)CC1 [Example 91, (5α,8β)-8-Hydroxy-8-(3-methoxy-propyl)-2-(4-trifluoromethoxy-phenyl)-2-aza-spiro[4.5]decan-1-one] | 6.05 |

Other lines, results leading:

| pIC50 | Compound |
| --- | --- |
| 7.52 | C=CCC[C@]1(O)CC[C@]2(CCN(c3ccc(OC(F)(F)F)cc3)C2=O)CC1 [Example 64, (5α,8α)-8-But-3-enyl-8-hydroxy-2-(4-trifluoromethoxy-phenyl)-2-aza-spiro[4.5]decan-1-one] |
| 7.52 | CCCC[C@]1(O)CC[C@]2(CCN(c3ccc(OC(F)(F)F)cc3)C2=O)CC1 [Example 66, (5α,8α)-8-Butyl-8-hydroxy-2-(4-trifluoromethoxy-phenyl)-2-aza-spiro[4.5]decan-1-one] |
| 7.52 | CC(C)[C@]1(O)CC[C@]2(CCN(c3ccc(OC(F)(F)F)cc3)C2=O)CC1 [Example 68, (5α,8α)-8-Hydroxy-8-isopropyl-2-(4-trifluoromethoxy-phenyl)-2-aza-spiro[4.5]decan-1-one] |
| 6.89 | O=C1N(c2ccc(OC(F)(F)F)cc2)CC[C@]12CC[C@@](O)(C1CC1)CC2 [Example 70, (5α,8α)-8-Cyclopropyl-8-hydroxy-2-(4-trifluoromethoxy-phenyl)-2-aza-spiro[4.5]decan-1-one] |
| 7.40 | COCC#C[C@]1(O)CC[C@]2(CCN(c3ccc(OC(F)(F)F)cc3)C2=O)CC1 [Example 71, (5α,8α)-8-Hydroxy-8-(3-methoxy-prop-1-ynyl)-2-(4-trifluoromethoxy-phenyl)-2-aza-spiro[4.5]decan-1-one] |
| 7.52 | CCC[C@]1(O)CC[C@]2(CCN(c3ccc(C4CC4)cc3)C2=O)CC1 [Example 75, (5α,8α)-2-(4-Cyclopropyl-phenyl)-8-hydroxy-8-propyl-2-aza-spiro[4.5]decan-1-one] |
| 7.30 | C[C@]1(O)CC[C@]2(CCN(c3ccc(CC(F)(F)F)cc3)C2=O)CC1 [Example 77, (5α,8α)-8-Hydroxy-8-methyl-2-[4-(2,2,2-trifluoro-ethyl)-phenyl]-2-aza-spiro[4.5]decan-1-one] |
| 7.52 | CC[C@]1(O)CC[C@]2(CCN(c3ccc(CC(F)(F)F)cc3)C2=O)CC1 [Example 79, (5α,8α)-8-Ethyl-8-hydroxy-2-[4-(2,2,2-trifluoro-ethyl)-phenyl]-2-aza-spiro[4.5]decan-1-one] |
| 7.70 | CCC[C@]1(O)CC[C@]2(CCN(c3ccc(CC(F)(F)F)cc3)C2=O)CC1 [Example 81, (5α,8α)-8-Hydroxy-8-propyl-2-[4-(2,2,2-trifluoro-ethyl)-phenyl]-2-aza-spiro[4.5]decan-1-one] |
| 7.15 | CCCc1ccc(N2CC[C@]3(CC[C@@](O)(CC)CC3)C2=O)cc1 [Example 83, (5α,8α)-8-Ethyl-8-hydroxy-2-(4-propyl-phenyl)-2-aza-spiro[4.5]decan-1-one] |
| 7.38 | CC[C@]1(O)CC[C@]2(CCN(c3ccc(OCC(F)(F)F)cc3)C2=O)CC1 [Example 88, (5α,8α)-8-Ethyl-8-hydroxy-2-[4-(2,2,2-trifluoro-ethoxy)-phenyl]-2-aza-spiro[4.5]decan-1-one] |
| 7.64 | COCCC[C@]1(O)CC[C@]2(CCN(c3ccc(OC(F)(F)F)cc3)C2=O)CC1 [Example 90, (5α,8α)-8-Hydroxy-8-(3-methoxy-propyl)-2-(4-trifluoromethoxy-phenyl)-2-aza-spiro[4.5]decan-1-one] |
